# Results taken from patent US11739100B2, “2,3-dihydro-1h-imidazo{1,2-a}pyrimidin-5-one and this 1,2,3,4-tetrahydropyrimido{1,2-a}pyrimidin-6-one derivatives comprising a substituted morpholine, preparation thereof and pharmaceutical use thereof” (SANOFI, priority 2012, dated 2023).
# Target: T1, recombinant Vps34 (Homo sapiens, UniProt Q8NEB9)
# T1 construct: purchased Invitrogen PV5126
# Experiment: Phosphorylation of phosphatidylinositol (PI) by Vps34 in vitro, ADP detected by TR-FRET (HTRF Transcreener ADP)
# Type: biochemical
# Settings: 10 μM ATP, 55 μg/ml PI, approximately 3 nM Vps34, 1 hour at ambient temperature; absolute IC50, mean of two independent experiments; read-out: IC50 activity range
# T1 sequence (Q8NEB9 whole entry): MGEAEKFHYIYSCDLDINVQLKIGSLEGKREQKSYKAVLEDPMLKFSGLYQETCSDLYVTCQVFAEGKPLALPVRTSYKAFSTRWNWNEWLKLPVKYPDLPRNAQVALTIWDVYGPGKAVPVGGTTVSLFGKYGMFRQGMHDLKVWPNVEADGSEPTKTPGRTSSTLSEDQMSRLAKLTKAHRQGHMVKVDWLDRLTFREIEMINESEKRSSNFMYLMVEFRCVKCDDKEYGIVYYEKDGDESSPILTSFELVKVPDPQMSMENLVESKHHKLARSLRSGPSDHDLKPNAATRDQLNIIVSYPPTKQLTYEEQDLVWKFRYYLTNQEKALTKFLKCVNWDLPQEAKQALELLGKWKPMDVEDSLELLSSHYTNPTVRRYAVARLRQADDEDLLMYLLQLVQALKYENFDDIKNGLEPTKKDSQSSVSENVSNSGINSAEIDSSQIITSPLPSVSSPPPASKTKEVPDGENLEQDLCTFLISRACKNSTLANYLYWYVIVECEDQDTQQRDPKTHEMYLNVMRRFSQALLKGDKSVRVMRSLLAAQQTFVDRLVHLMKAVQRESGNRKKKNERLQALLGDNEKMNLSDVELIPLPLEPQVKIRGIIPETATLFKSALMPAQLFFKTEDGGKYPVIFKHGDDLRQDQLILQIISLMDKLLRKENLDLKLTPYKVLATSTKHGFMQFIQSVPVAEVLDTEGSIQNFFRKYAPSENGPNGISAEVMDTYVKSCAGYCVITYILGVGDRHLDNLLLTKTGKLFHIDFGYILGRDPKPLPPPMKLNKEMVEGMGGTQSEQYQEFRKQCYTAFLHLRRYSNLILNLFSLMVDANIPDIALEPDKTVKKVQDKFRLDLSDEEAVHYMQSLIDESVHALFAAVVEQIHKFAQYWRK
row,IC50,Compound
1,< 0.01 µM,"Cc1noc(CN2c3nc(N4CCOC[C@H]4C)cc(=O)n3CC[C@H]2C(F)(F)F)n1 [Example 17, (S)-2-((R)-3-Methyl-morpholin-4-yl)-9-(3-methyl-[1,2,4]oxadiazol-5-yl-methyl)-8-trifluoromethyl-6,7,8,9-tetrahydro-pyrimido[1,2-a]-pyrimidin-4-one]"
2,< 0.01 µM,"C[C@@H]1COCCN1c1cc(=O)n2c(n1)N(Cc1ccc(F)nc1)[C@H](C(F)(F)F)CC2 [Example 24, (S)-9-(6-Fluoropyridin-3-ylmethyl)-2-((R)-3-methylmorpholin-4-yl)-8-trifluoromethyl-6,7,8,9-tetrahydro-pyrimido[1,2-a]-pyrimidin-4-one]"
3,< 0.01 µM,"C[C@@H]1COCCN1c1nc2n(c(=O)c1F)[C@@H](C(F)(F)F)CCN2Cc1nc(C(F)(F)F)no1 [Example 28, (R)-3-Fluoro-2-((R)-3-methylmorpholin-4-yl)-6-trifluoromethyl-9-(3-trifluoromethyl-[1,2,4]oxadiazol-5-yl-methyl)-6,7,8,9-tetrahydro-pyrimido[1,2-a]-pyrimidin-4-one]"
4,< 0.01 µM,"CCC(=O)CN1CC[C@H](C(F)(F)F)n2c1nc(N1CCOC[C@H]1C)c(F)c2=O [Example 29, (R)-3-Fluoro-2-((R)-3-methylmorpholin-4-yl)-9-(2-oxobutyl)-6-trifluoromethyl-6,7,8,9-tetrahydro-pyrimido[1,2-a]-pyrimidin-4-one]"
5,< 0.01 µM,"Cc1nc(CN2c3nc(N4CCOC[C@H]4C)c(F)c(=O)n3C[C@@]2(C)C(F)(F)F)no1 [Example 30, (S)-6-Fluoro-2-methyl-7-((R)-3-methyl-morpholin-4-yl)-1-(5-methyl-[1,2,4]oxadiazol-3-yl-methyl)-2-trifluoromethyl-2,3-dihydro-1H-imidazo[1,2-a]-pyrimidin-5-one]"
6,< 0.01 µM,"C[C@@H]1COCCN1c1cc(=O)n2c(n1)N(CC(=O)C1CC1)[C@](C)(C(F)(F)F)C2 [Example 31, (S)-1-(2-Cyclopropyl-2-oxoethyl)-2-methyl-7-((R)-3-methyl-morpholin-4-yl)-2-trifluoromethyl-2,3-dihydro-1H-imidazo[1,2-a]-pyrimidin-5-one]"
7,0.01 to 0.1 µM,"C[C@@H]1COCCN1c1cc(=O)n2c(n1)N(Cc1cnc(Cl)s1)[C@H](C(F)(F)F)CC2 [Example 34, (S)-9-(2-Chloro-thiazol-5-ylmethyl)-2-((R)-3-methyl-morpholin-4-yl)-8-trifluoromethyl-6,7,8,9-tetrahydro-pyrimido[1,2-a]-pyrimidin-4-one]"
8,< 0.01 µM,"C[C@@H]1COCCN1c1cc(=O)n2c(n1)N(Cc1ccc(Cl)nc1)[C@H](C(F)(F)F)CC2 [Example 35, (S)-9-(6-Chloro-pyridin-3-ylmethyl)-2-((R)-3-methyl-morpholin-4-yl)-8-trifluoromethyl-6,7,8,9-tetrahydro-pyrimido[1,2-a]-pyrimidin-4-one]"
9,< 0.01 µM,"COc1cc(N2c3nc(N4CCOC[C@H]4C)c(F)c(=O)n3CC[C@H]2C(F)(F)F)ccn1 [Example 40, (S)-3-Fluoro-9-(2-methoxypyridin-4-yl)-2-((R)-3-Methyl-morpholin-4-yl)-8-trifluoromethyl-6,7,8,9-tetrahydro-pyrimido[1,2-a]-pyrimidin-4-one]"
10,< 0.01 µM,"C[C@@H]1COCCN1c1nc2n(c(=O)c1F)CC[C@@H](C(F)(F)F)N2Cc1ccnc(Cl)c1 [Example 41, (S)-9-(2-Chloro-pyridin-4-ylmethyl)-3-fluoro-2-((R)-3-methyl-morpholin-4-yl)-8-trifluoromethyl-6,7,8,9-tetrahydro-pyrimido[1,2-a]-pyrimidin-4-one]"
11,< 0.01 µM,"C[C@@H]1COCCN1c1nc2n(c(=O)c1F)CC[C@@H](C(F)(F)F)N2c1ccc(C2CC2)nc1 [Example 43, (S)-9-(6-Cyclopropyl-pyridin-3-yl)-3-fluoro-2-((R)-3-methyl-morpholin-4-yl)-8-trifluoromethyl-6,7,8,9-tetrahydro-pyrimido[1,2-a]-pyrimidin-4-one]"
12,0.01 to 0.1 µM,"C[C@@H]1COCCN1c1nc2n(c(=O)c1F)CC[C@@H](C(F)(F)F)N2c1cccnc1 [Example 47, (S)-3-Fluoro-2-((R)-3-methylmorpholin-4-yl)-9-pyridin-3-yl-8-trifluoromethyl-6,7,8,9-tetrahydro-pyrimido[1,2-a]-pyrimidin-4-one]"

# Continued, compound first:
row,Compound,IC50
1,"C[C@@H]1COCCN1c1nc2n(c(=O)c1F)CC[C@@H](C(F)(F)F)N2CC(=O)C1CCOCC1 [Example 18, (S)-3-Fluoro-2-((R)-3-methylmorpholin-4-yl)-9-[2-oxo-2-(tetrahydro-pyran-4-yl)ethyl]-8-trifluoromethyl-6,7,8,9-tetrahydro-pyrimido[1,2-a]-pyrimidin-4-one]",< 0.01 µM
2,"Cc1noc(CN2c3nc(N4CCOC[C@H]4C)c(F)c(=O)n3CC[C@H]2C(F)(F)F)n1 [Example 19, (S)-3-Fluoro-2-((R)-3-methylmorpholin-4-yl)-9-(3-methyl-[1,2,4]oxadiazol-5-yl-methyl)-8-trifluoromethyl-6,7,8,9-tetrahydro-pyrimido[1,2-a]-pyrimidin-4-one]",< 0.01 µM
3,"COCCN1c2nc(N3CCOC[C@H]3C)c(F)c(=O)n2CC[C@H]1C(F)(F)F [Example 20, (S)-3-Fluoro-9-(2-methoxy-ethyl)-2-((R)-3-methylmorpholin-4-yl)-8-trifluoromethyl-6,7,8,9-tetrahydro-pyrimido[1,2-a]-pyrimidin-4-one]",< 0.01 µM
4,"Cc1nc(CN2CC[C@H](C(F)(F)F)n3c2nc(N2CCOC[C@H]2C)c(F)c3=O)no1 [Example 21, (R)-3-Fluoro-2-((R)-3-methylmorpholin-4-yl)-9-(5-methyl-[1,2,4]oxadiazol-3-yl-methyl)-6-trifluoromethyl-6,7,8,9-tetrahydro-pyrimido[1,2-a]-pyrimidin-4-one]",< 0.01 µM
5,"CCC(=O)CN1c2nc(N3CCOC[C@H]3C)c(F)c(=O)n2CC[C@H]1C(F)(F)F [Example 22, (S)-3-Fluoro-2-((R)-3-methylmorpholin-4-yl)-9-(2-oxobutyl)-8-trifluoromethyl-6,7,8,9-tetrahydro-pyrimido[1,2-a]-pyrimidin-4-one]",< 0.01 µM
6,"CON(C)C(=O)CN1c2nc(N3CCOC[C@H]3C)c(F)c(=O)n2CC[C@H]1C(F)(F)F [Example 23, 2-[(S)-7-Fluoro-8-((R)-3-methylmorpholin-4-yl)-6-oxo-2-trifluoromethyl-3,4-dihydro-2H,6H-pyrimido[1,2-a]-pyrimidin-1-yl]-N-methoxy-N-methyl-acetamide]",< 0.01 µM
7,"C[C@@H]1COCCN1c1cc(=O)n2c(n1)N(CC(=O)c1ccnc(F)c1)[C@H](C(F)(F)F)CC2 [Example 25, (S)-9-[2-(2-Fluoro-pyridin-4-yl)-2-oxo-ethyl]-2-((R)-3-methyl-morpholin-4-yl)-8-trifluoromethyl-6,7,8,9-tetrahydro-pyrimido[1,2-a]-pyrimidin-4-one]",< 0.01 µM
8,"CCC(=O)CN1CC[C@H](C(F)(F)F)n2c1nc(N1CCOC[C@H]1C)cc2=O [Example 26, (R)-2-((R)-3-Methyl-morpholin-4-yl)-9-(2-oxobutyl)-6-trifluoromethyl-6,7,8,9-tetrahydro-pyrimido[1,2-a]-pyrimidin-4-one]",< 0.01 µM
9,"Cc1nc(CN2CC[C@H](C(F)(F)F)n3c2nc(N2CCOC[C@H]2C)cc3=O)no1 [Example 27, (R)-2-((R)-3-Methyl-morpholin-4-yl)-9-(5-methyl-[1,2,4]oxadiazol-3-yl-methyl)-6-trifluoromethyl-6,7,8,9-tetrahydro-pyrimido[1,2-a]-pyrimidin-4-one]",< 0.01 µM
10,"C[C@@H]1COCCN1c1cc(=O)n2c(n1)N(Cc1ccn(C(F)F)n1)[C@H](C(F)(F)F)CC2 [Example 32, (S)-9-(1-Difluoromethyl-1H-pyrazol-3-ylmethyl)-2-((R)-3-methyl-morpholin-4-yl)-8-trifluoromethyl-6,7,8,9-tetrahydro-pyrimido[1,2-a]-pyrimidin-4-one]",< 0.01 µM
11,"C[C@@H]1COCCN1c1cc(=O)n2c(n1)N(Cc1ccon1)[C@H](C(F)(F)F)CC2 [Example 33, (S)-9-Isoxazol-3-yl-methyl-2-((R)-3-methylmorpholin-4-yl)-8-trifluoromethyl-6,7,8,9-tetrahydro-pyrimido[1,2-a]-pyrimidin-4-one]",< 0.01 µM
12,"C[C@@H]1COCCN1c1cc(=O)n2c(n1)N(Cc1ccno1)[C@H](C(F)(F)F)CC2 [Example 36, (S)-9-Isoxazol-5-yl-methyl-2-((R)-3-methylmorpholin-4-yl)-8-trifluoromethyl-6,7,8,9-tetrahydro-pyrimido[1,2-a]-pyrimidin-4-one]",< 0.01 µM
13,"C[C@@H]1COCCN1c1cc(=O)n2c(n1)N(Cc1ccnn1C(F)F)[C@H](C(F)(F)F)CC2 [Example 37, (S)-9-(2-Difluoromethyl-2H-pyrazol-3-ylmethyl)-2-((R)-3-methyl-morpholin-4-yl)-8-trifluoromethyl-6,7,8,9-tetrahydro-pyrimido[1,2-a]-pyrimidin-4-one]",< 0.01 µM
14,"C[C@@H]1COCCN1c1nc2n(c(=O)c1F)CC[C@@H](C(F)(F)F)N2CC(=O)c1ccccn1 [Example 38, (S)-3-Fluoro-2-((R)-3-methylmorpholin-4-yl)-9-(2-oxo-2-pyridin-2-ylethyl)-8-trifluoromethyl-6,7,8,9-tetrahydro-pyrimido[1,2-a]-pyrimidin-4-one]",< 0.01 µM
15,"C[C@@H]1COCCN1c1nc2n(c(=O)c1F)CC[C@@H](C(F)(F)F)N2Cc1ncco1 [Example 42, (S)-3-Fluoro-2-((R)-3-methylmorpholin-4-yl)-9-oxazol-2-ylmethyl-8-trifluoromethyl-6,7,8,9-tetrahydro-pyrimido[1,2-a]-pyrimidin-4-one]",< 0.01 µM
16,"C[C@@H]1COCCN1c1nc2n(c(=O)c1F)CC[C@@H](C(F)(F)F)N2Cc1cocn1 [Example 44, (S)-3-Fluoro-2-((R)-3-methylmorpholin-4-yl)-9-oxazol-4-ylmethyl-8-trifluoromethyl-6,7,8,9-tetrahydro-pyrimido[1,2-a]-pyrimidin-4-one]",< 0.01 µM
17,"C[C@@H]1COCCN1c1nc2n(c(=O)c1F)CC[C@@H](C(F)(F)F)N2Cc1ccno1 [Example 46, (S)-3-Fluoro-9-isoxazol-5-ylmethyl-2-((R)-3-methyl-morpholin-4-yl)-8-trifluoromethyl-6,7,8,9-tetrahydro-pyrimido[1,2-a]-pyrimidin-4-one]",< 0.01 µM
